Data on 4 molecules can be found in patent US20250186491A1, “COMPOSITIONS AND METHODS FOR TREATING CANCER WITH CHIMERIC TIM RECEPTORS IN COMBINATION WITH INHIBITORS OF POLY (ADP-RIBOSE) POLYMERASE” (CERO THERAPEUTICS HOLDINGS, INC., priority 2020, published 2025).

Assay [1] deals with Kuramochi ovarian cancer cells. The assay is described as follows: Kuramochi cell number under PARP inhibitors, tracked via imaging. Type of assay: cell-based, human. The settings on record: for elimination of the Kuramochi culture: by t=50 h; for EC50 values (ranking), number of Kuramochi cells: five PARP inhibitors compared. As for the experimental part: Kuramochi ovarian cancer cells expressing an mCherry-NLS plasmid were incubated with 0.78 to 100 uM of the PARP inhibitor Niraparib. The number of Kuramochi cells/well was tracked via imaging.

A further assay has as its system Kuramochi cells. As for the experimental part:
FIG. 8A: Flow cytometry measurement of surface PtdSer. Kuramochi cells were treated with 1.56 or 25 μM Niraparib or with equivalent volume of DMSO (control). 48 hours later samples were trypsinized and stained using a Tim4-Fc followed by a fluorescently-labeled secondary anti body to the Tim4-Fc. FIG. 8B: Kuramochi cells pre-treated for ˜20 hours with 1.56 μM Niraparib were co-cultured with pCTX133 and Untransduced CD4 T cells from donor 32 at a 2:1 T cell:Kuramochi ratio and a final Niraparib concentration of 1.56 μM. […] All data were collected via IncuCyte.
(§1) Flow cytometry measurement of surface PS: A2780-mCh-NLS cells were treated with […] Niraparib or with equivalent volume of DMSO (control). 48 hours later samples were trypsinized and stained using a Tim4-Fc followed by a fluorescently-labeled secondary antibody to the Tim4-Fc. Samples were immediately analyzed via Flow cytometry.

The test system of a further assay is A2780-mCh-NLS cells. The settings on record: FIG. 11A. As for the experimental part: as §1

Each structure is given as a SMILES string.

As to `C[C@]1(c2nc3c(C(N)=O)cccc3[nH]2)CCCN1` [Veliparib], in assay [1] (t=50 h, of the five PARP inhibitors tested, FIG. 1B), the “impact on the number of detected Kuramochi cells” value is on record as “least impact”.
For the molecule `NC(=O)c1cccc2cn(-c3ccc([C@@H]4CCCNC4)cc3)nc12` [Niraparib], the “membrane phospholipid symmetry (Ptd-Ser exposure)” value with Kuramochi cells (BRCA-2 mutated Kuramochi, brief exposure, 1.56 or 25 μM, FIG. 8A) is “elicits changes in membrane phospholipid symmetry, in a dose dependent manner”. The “growth of Kuramochi cells” value in the assay on Kuramochi cells (FIG. 8A) is on record as “effective in inhibiting growth”. Also, the “Tim4-Fc MFI” value with Kuramochi cells (Kuramochi, 25 μM Niraparib vs DMSO, FIG. 11B) is “increase”; in the assay with A2780-mCh-NLS cells (1.56 and 25 μM Niraparib vs DMSO), “increase”. Besides, the “concentration at which anti-tumor effect begins” value in the assay with Kuramochi cells (Kuramochi, FIG. 11B) is “at least 25 μM”; in the assay with A2780-mCh-NLS cells, “at least 1.56 μM”. Moreover, the “number of Kuramochi cells in culture” value in assay [1] (Niraparib 0.78 to 100 uM, t=50, FIG. 1A) is given as “decreases monotonically with increasing Niraparib concentration”. Moreover, the “elimination of the Kuramochi culture” value in assay [1] (FIG. 1B) is “almost eliminate the Kuramochi culture”. The “EC50 values (ranking), number of Kuramochi cells” value in assay [1] (t=50 h, FIG. 1B) was “most sensitive EC50 values”.
With `Cn1ncnc1[C@H]1c2n[nH]c(=O)c3cc(F)cc(c23)N[C@@H]1c1ccc(F)cc1` [Talazoparib], the “EC50 values (ranking), number of Kuramochi cells” value in assay [1] (t=50 h, FIG. 1B) was “most sensitive EC50 values”.
As for `CNCc1ccc(-c2[nH]c3cc(F)cc4c3c2CCNC4=O)cc1` [Rucaparib], the “elimination of the Kuramochi culture” value in assay [1] (FIG. 1B) was “almost eliminate the Kuramochi culture”.
